Our source for the EC50 and half-life values is patent publication US20230382940A1, “ANTIVIRAL COMPOUNDS AND METHODS OF MAKING AND USING THE SAME” (Gilead Sciences, Inc., priority 2022, published 2023).

In data set [1] the test system is Respiratory syncytial virus recombinant with luciferase (RSV-Luc5). The experiment in a line: NHBE RSV-Luc5 384-well assay (EC50 RSVFLUC NHBE-384 v2), Example W. The class given is cell-based. The note with it: human respiratory syncytial virus, 72 h, read-out: EC50 RSV FLUC NHBE 384 V2 (per Ex. W). In short, it runs like this:
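Primary NHBE cells (passage 2), 5,000/well, infected with RSV-Luc5 at MOI 1 alongside 10-point 1:3 compound dilutions; 3 days at 37° C. Replication read by One-Glo luminescence, normalized to remdesivir (0%) and DMSO (100%); EC50 = concentration reducing replication by 50%, from non-linear regression.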

A short description of data set [2]: GI S9 stability, human, Example Y. The data set is classed as in vitro ADME. The note with it: pooled intestinal S9 fractions; human intestinal S9, 1.0 mg/mL protein, 2 μM compound, pH 7.4; read-out: GIS9 Human T½ (per Ex. Y). The method, then:
(§1) Example Y: GI S9 Stability Data
(§2) Stock solutions of test compounds in dimethyl sulfoxide (DMSO) having a final concentration of 10 mM were prepared and used in all experiments. Sekisui XenoTech (Kansas City, KS) provided pooled intestinal S9 fractions. All other chemicals were purchased from Sigma-Aldrich (St. Louis, MO) or VWR (West Chester, PA). Internal Standard/Quench (IS/Q) used to stop reactions was 100 nM labetalol in (by volume) methanol (10%) and acetonitrile (90%).
(§3) Stability in Intestinal S9 Fractions: Duplicate aliquots of test compound or positive control substrate were added to S9 stock diluted with phosphate buffered saline (137 mM NaCl, 2.7 mM KCl, 10 mM phosphate buffer), pH 7.4, to obtain a protein concentration of 1.0 mg/mL. The metabolic reactions were initiated by the addition of the substrates to the S9 reaction mixture to a final concentration of 2 μM. At 0, 10, 20, 30, 60 and 120 min, 25 μL aliquots of the reaction mixture were transferred to plates containing 225 μl of IS/Q solution. After quenching, the plates were centrifuged at 3000×g for 30 minutes. 150 μL aliquots of each supernatant were dried down then reconstituted with 300 μL water. Aliquots (10 μL) of the prepared samples were analyzed on a Thermo Q-Exactive mass spectrometer as described below.
(§4) Liquid Chromatography—Mass Spectrometry: Quantification of test compounds and control substrate was performed by analyte/internal standard peak area ratio (PAR) values measured on a Thermo Q-Exactive mass spectrometer coupled to a Dionex UltiMate 3000 HPLC with a Leap Technologies HTC PAL autosampler. The column used for analysis was a Waters Acquity BEH C18 (1.7 μm particle size, 2.1×50 mm). Mobile phase A consisted of 0.1% (v/v) formic acid in water. Mobile phase B consisted of 0.1% (v/v) formic acid in acetonitrile. Elution of analytes was achieved by a series of linear gradients varying the proportions of A and B. The mass spectrometer was calibrated on a weekly basis and mass tolerance of 5 ppm was used.
(§5) Metabolic stabilities in S9 fractions were determined by measuring the rates of disappearance of test compound and positive control substrate.
(§6) Data (% of substrate remaining) were plotted on a semi-log scale and fitted using an exponential decline model:
(§7) Ct=C0×e^−ln2/T1/2×t • Where Ct—% of substrate remaining at time=t; C0—% of substrate remaining at time=0; t—time; T1/2—half-life. • The Half-life (T1/2) is determined by the following equation: […]
(§8) Assuming a first-order reaction, the slope (k) is extrapolated from the aforementioned plotted data.

Data set [3] can be described thus: GI S9 stability, rat, Example Y. As to conditions: pooled intestinal S9 fractions; rat intestinal S9, 1.0 mg/mL protein, 2 μM compound, pH 7.4; read-out: GIS9 Rat T½ (per Ex. Y). The data set is classed as in vitro ADME. The method, then: as §1, §2, §3, §4, §5, §6, §7, §8

Turning to `CCCOCCOC(=O)OC[C@@]1(C#N)O[C@@H](c2ccc3c(N)ncnn23)[C@H](O)[C@@H]1O` [Compound 34, ((2R,3S,4R,5S)-5-(4-aminopyrrolo[2,1-f][1,2,4]triazin-7-yl)-2-cyano-3,4-dihydroxytetrahydrofuran-2-yl)methyl (2-propoxyethyl) carbonate], the concentration giving a half-maximal response (EC50) in data set [1] amounted to 6.39 µM. Also, the half-life at 2 μM is 108 min in data set [2] and 11 min in data set [3].
In the same order, the values of `CC(C)(C)CCOC(=O)OC[C@@]1(C#N)O[C@@H](c2ccc3c(N)ncnn23)[C@H](O)[C@@H]1O` [Compound 35, ((2R,3S,4R,5S)-5-(4-aminopyrrolo[2,1-f][1,2,4]triazin-7-yl)-2-cyano-3,4-dihydroxytetrahydrofuran-2-yl)methyl (3,3-dimethylbutyl) carbonate] are 5.78 µM, 19 min and 4 min.
On to `N#C[C@]1(COC(=O)OC2CC3(CCC3)C2)O[C@@H](c2ccc3c(N)ncnn23)[C@H](O)[C@@H]1O` [Compound 36, ((2R,3S,4R,5S)-5-(4-aminopyrrolo[2,1-f][1,2,4]triazin-7-yl)-2-cyano-3,4-dihydroxytetrahydrofuran-2-yl)methyl spiro[3.3]heptan-2-yl carbonate], for which the EC50 in data set [1] was determined as 8.42 µM. Also, the half-life at 2 μM in data set [2] worked out at 14 min; in data set [3], 3 min.
Take `CC1(C)CC(OC(=O)OC[C@@]2(C#N)O[C@@H](c3ccc4c(N)ncnn34)[C@H](O)[C@@H]2O)C1` [Compound 37, ((2R,3S,4R,5S)-5-(4-aminopyrrolo[2,1-f][1,2,4]triazin-7-yl)-2-cyano-3,4-dihydroxytetrahydrofuran-2-yl)methyl (3,3-dimethylcyclobutyl) carbonate]: the EC50 in data set [1] was found to be 7.44 µM. Moreover, the results for the half-life at 2 μM in data set [2] and in data set [3] were 29 min and 4 min, respectively.
In the same order, the values of `COC[C@@H](C)OC(=O)OC[C@@]1(C#N)O[C@@H](c2ccc3c(N)ncnn23)[C@H](O)[C@@H]1O` [Compound 38, ((2R,3S,4R,5S)-5-(4-aminopyrrolo[2,1-f][1,2,4]triazin-7-yl)-2-cyano-3,4-dihydroxytetrahydrofuran-2-yl)methyl ((R)-1-methoxypropan-2-yl) carbonate] are 7.61 µM, 292 min and 38 min.
`N#C[C@]1(COC(=O)O[C@@H]2C[C@@H]3C[C@@H]3C2)O[C@@H](c2ccc3c(N)ncnn23)[C@H](O)[C@@H]1O` [Compound 39, ((2R,3S,4R,5S)-5-(4-aminopyrrolo[2,1-f][1,2,4]triazin-7-yl)-2-cyano-3,4-dihydroxytetrahydrofuran-2-yl)methyl ((1R,3r,5S)-bicyclo[3.1.0]hexan-3-yl) carbonate]: the EC50 in data set [1] was 7.84 µM. The half-life at 2 μM in data set [2] came out at 27 min; in data set [3], 7 min.
In the same order, the values of `C[C@H]1CC[C@H](OC(=O)OC[C@@]2(C#N)O[C@@H](c3ccc4c(N)ncnn34)[C@H](O)[C@@H]2O)CC1` [Compound 40, ((2R,3S,4R,5S)-5-(4-aminopyrrolo[2,1-f][1,2,4]triazin-7-yl)-2-cyano-3,4-dihydroxytetrahydrofuran-2-yl)methyl ((1r,4R)-4-methylcyclohexyl) carbonate] are 7.42 µM, 36 min and 6 min.
